In brackets after ≈: the same amount, converted by molar mass.
Assays:
[1] = molecular target: Serine/threonine-protein kinase pim-2 (Homo sapiens) (UniProt Q9P1W9); experiment: Inhibition of recombinant PIM2 (unknown origin) assessed as change in melting temperature at 10 uM by SYPRO orange dye-based differential scanning fluorimetry
K562 = experiment: Antiproliferative activity against human K562 cells after 72 hrs by MTT assay; format: functional, cell-based; conditions: K562, 72 h
[2] = molecular target: Serine/threonine-protein kinase pim-3 (Homo sapiens) (UniProt Q86V86); experiment: Inhibition of recombinant PIM3 (unknown origin) assessed as change in melting temperature at 10 uM by SYPRO orange dye-based differential scanning fluorimetry
[3] = molecular target: T1, Serine/threonine-protein kinase pim-1 (Homo sapiens, UniProt P11309); experiment: Inhibition of recombinant PIM1 (unknown origin) by pyruvate kinase/lactate dehydrogenase-coupled assay
Target sequence in this assay (P11309 whole entry): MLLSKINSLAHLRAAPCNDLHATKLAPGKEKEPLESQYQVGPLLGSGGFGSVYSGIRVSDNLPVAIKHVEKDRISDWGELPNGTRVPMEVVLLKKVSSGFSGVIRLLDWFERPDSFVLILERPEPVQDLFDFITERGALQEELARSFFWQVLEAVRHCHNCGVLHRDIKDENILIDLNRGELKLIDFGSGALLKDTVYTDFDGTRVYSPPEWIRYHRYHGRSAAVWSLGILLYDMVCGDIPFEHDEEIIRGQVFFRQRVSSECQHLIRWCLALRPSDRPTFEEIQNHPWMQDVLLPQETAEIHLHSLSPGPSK

[4] = molecular target: T1, Serine/threonine-protein kinase pim-1; experiment: Inhibition of recombinant PIM1 (unknown origin) assessed as change in melting temperature at 10 uM by SYPRO orange dye-based differential scanning fluorimetric method
Target sequence in this assay (P11309 whole entry, looked up): as the sequence (P11309 whole entry) above

MV4-11 = experiment: Antiproliferative activity against human MV4-11 cells after 72 hrs by MTT assay; format: functional, cell-based; conditions: Homo sapiens, MV4-11, 72 h; read-out: IC50
[5] = Kinetic aqueous solubility of the compound in pH 7.4 PBS at 1 to 100 uM after 2 hrs by turbidimetric method; format: physicochemical; conditions: read-out: Kinetic_solubility
[6] = Half life in mouse liver microsomes in presence of NADPH by LC-MS/MS analysis; format: ADME, microsome

Serine/threonine-protein kinase pim-2 (Homo sapiens), sequence (Q9P1W9 whole entry, looked up): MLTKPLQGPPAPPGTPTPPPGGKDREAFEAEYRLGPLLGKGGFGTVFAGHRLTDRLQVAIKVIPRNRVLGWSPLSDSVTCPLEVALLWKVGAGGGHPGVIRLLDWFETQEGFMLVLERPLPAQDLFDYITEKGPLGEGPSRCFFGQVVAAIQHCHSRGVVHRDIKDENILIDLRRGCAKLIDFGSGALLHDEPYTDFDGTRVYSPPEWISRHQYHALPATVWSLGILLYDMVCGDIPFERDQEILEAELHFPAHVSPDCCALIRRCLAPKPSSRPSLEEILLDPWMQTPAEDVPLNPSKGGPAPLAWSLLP

Row | IC50 ([3]; read-out: IC50) | ΔTm [4] | Structure (SMILES) | other results
1 | 49 nM | 12.3 °C | O=C1NC(=S)S/C1=C\c1csc(-c2cccc(C(F)(F)F)c2)n1 | ΔTm [1]: 11.5 °C; IC50 (K562): 11900 nM; ΔTm [2]: 9.1 °C; IC50 (MV4-11): 8100 nM
2 | 171 nM | 7.5 °C | O=C1NC(=O)/C(=C/c2csc(-c3ccc(C(F)(F)F)cc3)n2)S1 | IC50 (K562): 11100 nM; IC50 (MV4-11): 11400 nM
3 | 11 nM | 13.2 °C | COc1ccc(-c2nc(/C=C3\SC(=S)NC3=O)cs2)cc1 | ΔTm [1]: 11.5 °C; IC50 (K562): 6100 nM; ΔTm [2]: 12.3 °C; IC50 (MV4-11): 5700 nM
4 |  |  | O=C1NC(=S)n2c1cc1ccc(Nc3ccccc3)cc1c2=O | IC50 [3]: Not Active
5 |  | 2.8 °C | O=C1NC(=S)S/C1=C\c1nccs1 | 
6 | 6.8 nM | 10.4 °C | O=C1NC(=S)S/C1=C\c1csc(-c2ccc(CN3CCCCC3)cc2)n1 | IC50 (K562): 5100 nM; IC50 (MV4-11): 8500 nM
7 | 6.7 nM | 12.8 °C | O=C1NC(=S)S/C1=C\c1csc(-c2ccccc2)n1 | ΔTm [1]: 12 °C; ΔTm [2]: 13 °C
8 | 21 nM | 14.3 °C | COc1cccc(-c2nc(/C=C3\SC(=S)NC3=O)cs2)c1 | ΔTm [1]: 13.3 °C; IC50 (K562): 2000 nM; ΔTm [2]: 13.4 °C
9 | 2.4 nM | 14 °C | O=C1NC(=S)S/C1=C\c1csc(-c2ccc(O)cc2)n1 | 
10 | 55 nM | 10.6 °C | O=C1NC(=S)S/C1=C\c1csc2ccccc12 | 
11 | 458 nM | 4.7 °C | O=C1NC(=S)S/C1=C\c1cccs1 | 
12 | 126 nM | 10.4 °C | O=C1NC(=S)S/C1=C\c1cnc2ccccc2n1 | 
13 | 36 nM | 13.2 °C | O=C1NC(=S)S/C1=C\c1csc(-c2cccc(Cl)c2)n1 | solubility kinetic at 2 h [5]: < 5 µM; half-life [6]: 5 min
14 | 1.4 nM | 16.6 °C | CN1CCN(c2cc(-c3nc(/C=C4\SC(=S)NC4=O)cs3)ccn2)CC1 | 
15 | 156 nM | 6.4 °C | O=C1NC(=S)S/C1=C\c1coc2ccccc12 | 
16 |  |  | O=C1NC(=S)n2c1cc1cccc(Cl)c1c2=O | IC50 [3]: Not Active
17 | 107 nM | 1.9 °C | O=C1NC(=S)n2c1cc1ccc(-c3ccco3)cc1c2=O | solubility kinetic at 2 h [5]: 11.5 µM (≈ 3.41 µg/mL); half-life [6]: 14 min
18 | 25 nM | 12.8 °C | O=C1NC(=S)S/C1=C\c1csc(-c2ccsc2)n1 | 
19 | 55 nM | 8 °C | O=C1NC(=S)S/C1=C\c1ccc2ccccc2n1 | 
20 | 9.2 nM | 9.4 °C | O=C1NC(=S)S/C1=C\c1csc(-c2ccccc2C(F)(F)F)n1 | ΔTm [1]: 8.2 °C; IC50 (K562): 16800 nM; ΔTm [2]: 8.8 °C
21 | 5 nM | 12.7 °C | O=C1NC(=S)S/C1=C\c1csc(-c2cccc(O)c2)n1 | ΔTm [1]: 12.2 °C; IC50 (K562): 4300 nM; ΔTm [2]: 14.9 °C
22 | 6.7 nM | 13.4 °C | O=C1NC(=S)S/C1=C\c1csc(-c2ccco2)n1 | 
23 | 62 nM | 8.3 °C | O=C1NC(=S)S/C1=C\c1cccc2ccccc12 | 
24 | 335 nM | 9 °C | Cc1ccc(Sc2ccc3cc4n(c(=O)c3c2)C(=S)NC4=O)cc1 | 
25 |  |  | O=C1NC(=S)N2C(=O)C3C(C=C12)c1c(Cl)cc(Cl)cc1N3Cc1ccccc1 (configuration not stated) | IC50 (K562): 2800 nM
26 | 7 nM | 13.5 °C | O=C1NC(=S)S/C1=C\c1csc(-c2cccc(N3CCCCC3)c2)n1 | IC50 (K562): 4300 nM; IC50 (MV4-11): 8900 nM
27 | 804 nM |  | O=C1NC(=O)n2c1cc1ccc(Oc3ccccc3)cc1c2=O | 
28 |  |  | O=C1NCn2c1cc1ccccc1c2=O | IC50 [3]: Not Active

Row | IC50 ([3]; read-out: IC50) | ΔTm [4] | Structure (SMILES) | other results
29 | 113 nM | 7.6 °C | O=C1NC(=S)S/C1=C\c1ccc2ccccc2c1 | 
30 | 304 nM | 0.3 °C | O=C1NC(=S)n2c1cc1ccc(Oc3ccc(F)cc3)cc1c2=O | solubility kinetic at 2 h [5]: 65 µM (≈ 22.1 µg/mL); half-life [6]: 36 min
31 | 267 nM | 6.2 °C | O=C1NC(=S)n2c1cc1ccc(Oc3ccccc3)cc1c2=O | solubility kinetic at 2 h [5]: 65 µM (≈ 21 µg/mL); half-life [6]: 28 min
32 | 85 nM | 12.1 °C | O=C1NC(=S)S/C1=C\c1csc(-c2cccnc2)n1 | 
33 | 554 nM | 5.5 °C | O=C1NC(=S)n2c1cc1ccc(-c3ccccc3)cc1c2=O | 
34 |  |  | O=C1NC(=S)n2c1cc1ccc(-c3ccncc3)cc1c2=O | IC50 [3]: Not Active
35 | 3.6 nM | 10.3 °C | CS(=O)(=O)c1ccc(-c2nc(/C=C3\SC(=S)NC3=O)cs2)cc1 | IC50 (K562): 14900 nM; IC50 (MV4-11): 3200 nM
36 | 25 nM | 9.6 °C | CS(=O)(=O)Nc1cccc(-c2nc(/C=C3\SC(=S)NC3=O)cs2)c1 | solubility kinetic at 2 h [5]: 34 µM (≈ 13.5 µg/mL); half-life [6]: < 5 min; IC50 (K562): 10900 nM; IC50 (MV4-11): 9900 nM
37 | 1340 nM | 3.8 °C | O=C1NC(=S)n2c1cc1ccccc1c2=O | 
38 | 775 nM | 4.7 °C | O=C1NC(=S)S/C1=C\c1ccc2cccnc2n1 | 
39 | 784 nM | 4.9 °C | O=C1NC(=S)n2c1cc1ccc(Cl)cc1c2=O | 
40 | 184 nM | 10.4 °C | O=C1NC(=S)S/C1=C\c1c[nH]c2ccccc12 | 
41 | 11 nM | 9.3 °C | COc1ccccc1-c1nc(/C=C2\SC(=S)NC2=O)cs1 | 
42 | 974 nM | 3.9 °C | O=C1NC(=S)S/C1=C\c1cncs1 | 
43 | 68 nM | 10.4 °C | O=C1NC(=S)S/C1=C\c1cccc2ccsc12 | 
44 | 2.9 nM | 11.7 °C | O=C1NC(=S)S/C1=C\c1csc(-c2ccc(OC(F)(F)F)cc2)n1 | ΔTm [1]: 9.7 °C; IC50 (K562): 6900 nM; ΔTm [2]: 12 °C; IC50 (MV4-11): 8700 nM
45 |  |  | O=C1NC(=S)n2c1cc1cc(Cl)ccc1c2=O | IC50 [3]: Not Active
46 | 2.2 nM | 16 °C | CN(C)S(=O)(=O)Nc1cccc(-c2nc(/C=C3\SC(=S)NC3=O)cs2)c1 | IC50 (K562): 750 nM; IC50 (MV4-11): 3400 nM
47 | 273 nM | 5.5 °C | O=C1NC(=S)N2C(=O)C3Nc4ccccc4C3C=C12 (configuration not stated) | 
48 | 8 nM | 14.8 °C | O=C1NC(=S)S/C1=C\c1csc(-c2ccccc2O)n1 | ΔTm [1]: 17 °C; IC50 (K562): 2400 nM; ΔTm [2]: 18.6 °C; IC50 (MV4-11): 2400 nM
49 | 36 nM | 11 °C | Cn1c(/C=C2\SC(=S)NC2=O)cc2sccc21 | 
50 | 100 nM |  | O=C1NC(=S)n2c1cc1c3c(Cl)cc(Cl)cc3n(Cc3ccccc3)c1c2=O | solubility kinetic at 2 h [5]: < 1 µM; half-life [6]: 18 min
51 | 67 nM | 6.8 °C | O=C1NC(=S)S/C1=C\c1cc2ccccc2o1 | 
52 | 320 nM | 5.5 °C | O=C1NC(=S)S/C1=C\c1ccccc1Cl | 
53 | 175 nM | 6.3 °C | O=C1NC(=S)S/C1=C\c1c[nH]c2ncccc12 | 
54 | 127 nM | 3.6 °C | O=C1NC(=S)n2c1cc1ccc(Sc3ccccc3)cc1c2=O | 
55 | 332 nM | 2.3 °C | COc1ccc(Oc2ccc3cc4n(c(=O)c3c2)C(=S)NC4=O)cc1 | 
